Our source for the inhibition values is publication PMC6152678, “In Vitro Comparative Study of the Inhibitory Effects of Mangiferin and Its Aglycone Norathyriol towards UDP-Glucuronosyl Transferase (UGT) Isoforms” (Molecules : A Journal of Synthetic Chemistry and Natural …, 2017).

For one series, the target named is T1, UGT1A1 (Homo sapiens, UniProt P22309).
T1 construct: purchased BD Gentest Corp. (Woburn, MA, USA); host or cells: baculovirus-infected insect cells
T1 sequence (P22309 26-533): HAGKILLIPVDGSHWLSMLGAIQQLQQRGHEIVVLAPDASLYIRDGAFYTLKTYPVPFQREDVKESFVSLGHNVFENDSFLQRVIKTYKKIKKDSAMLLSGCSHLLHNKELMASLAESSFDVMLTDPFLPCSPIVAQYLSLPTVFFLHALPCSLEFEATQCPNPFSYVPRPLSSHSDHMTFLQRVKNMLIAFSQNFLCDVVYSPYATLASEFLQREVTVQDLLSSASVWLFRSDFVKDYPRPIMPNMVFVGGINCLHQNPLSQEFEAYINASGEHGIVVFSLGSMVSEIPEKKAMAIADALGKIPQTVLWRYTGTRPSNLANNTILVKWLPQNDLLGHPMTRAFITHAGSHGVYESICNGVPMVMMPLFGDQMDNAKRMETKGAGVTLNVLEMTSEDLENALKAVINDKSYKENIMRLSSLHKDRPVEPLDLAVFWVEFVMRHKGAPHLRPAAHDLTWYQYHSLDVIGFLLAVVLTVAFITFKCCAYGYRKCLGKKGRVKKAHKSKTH
The experiment in a line: Inhibition of recombinant UGT-catalyzed 4-MU glucuronidation. The following applies: pH 7.4, probe 4-methylumbelliferone (4-MU), 110 μM, 100 μM compound, 4-MU probe substrate, negative = activation. Type of series: biochemical. The procedure: (§1) Sigma-Aldrich (St Louis, MO, USA) provided the following constituents in the incubation mixture: 4-methylumbelliferone (4-MU), 4-methylumbelliferone-β-D-glucuronide (4-MUG), Tris-HCl, 7-hydroxycoumarin, and uridine-diphosphoglucuronic acid (UDPGA) (trisodium salt). All other compounds were of high-performance liquid chromatography (HPLC) grade or of the highest grade commercially available. For enzyme sources, recombinant UGT isoforms expressed in baculovirus-infected insect cells were purchased from BD Gentest Corp. (Woburn, MA, USA), including UGT1A1, 1A3, 1A6, 1A7, 1A8, 1A9, 1A10, 2B4, 2B7, 2B15, and 2B17.
(§2) 4-MU, a nonspecific probe substrate for all the UGT isoforms, was employed to investigate the inhibition of MEF and NIR towards the activity of UGT isoforms. The incubation and analytical methods have been previously described. […] MEF and NIR were dissolved in the DMSO to make a stock solution of 20 mM, and various concentrations of working solutions were prepared through dilution with DMSO. 4-MU was used as a non-selective substrate of UGTs. There was a 5-min pre-incubation step at 37 °C before the reaction was initiated by the addition of UDPGA. 4-MU and inhibitors were previously dissolved in DMSO, and the total concentration of DMSO was 1%. The reactions were continued at 37 °C for 120 min for UGT1A1, UGT1A3, UGT1A10, UGT2B4, UGT2B7, UGT2B15 and UGT2B17, 30 min for UGT1A6, UGT1A7, UGT1A8, and UGT1A9, respectively. Reactions were terminated by the addition of 100 μL acetonitrile with 7-hydroxycoumarin (100 μM) as internal standard. The incubation mixtures were then centrifuged at 12,000 r/min for 10 min. 2 μL supernatant was injected into the UPLC system for analysis. An ACQUITY UPLC System (Waters, Milford, MA, USA) equipped with UV detector was used to analyze the samples, and the separation of all the compounds were carried out using a ACQUITY UPLC® BEH C18 (2.1 × 100 mm, 1.7 μm Waters) at a flow rate of 0.2 mL/min and UV detector at 316 nm. The mobile phase was consisted of ultrapure water containing 0.5% formic acid (A) and acetonitrile (B). The following gradient condition was used: 0–3.5 min, 10–65% B; 3.5–4.0 min, 65% B; 4.0–9.0 min, 10% B. To calculate the standard curve 0.1–100 μM of 4-MUG was used through drawing the peak area ration of 4-MUG/internal standard towards the concentration range of 4-MUG. The curve was linear over this concentration range, with an r^2 value > 0.99.
(§3) The inhibition type and Kinetics were determined for the inhibition of NTR towards UGT1A3, UGT1A7 and UGT1A9. The glucuronidation velocity of 4-MU was determined at multiple concentrations of 4-MU and NTR. Dixon and Lineweaver–Burk plots were employed to determine the inhibition type, and the second plot of the slopes from the Lineweaver–Burk plot versus the compound concentrations was utilized to calculate the Ki value. The determination of IC50 was calculated using Probit analysis in SPSS11.5 (SPSS, Chicago, IL, USA). The Student’s t-test was adopted at a significance level of p < 0.05 to determine statistically significant differences among experimental groups.

In the next series the target is T2, UGT2B15 (Homo sapiens, UniProt P54855).
T2 construct: purchased BD Gentest Corp. (Woburn, MA, USA); host or cells: baculovirus-infected insect cells
T2 sequence (P54855 24-530): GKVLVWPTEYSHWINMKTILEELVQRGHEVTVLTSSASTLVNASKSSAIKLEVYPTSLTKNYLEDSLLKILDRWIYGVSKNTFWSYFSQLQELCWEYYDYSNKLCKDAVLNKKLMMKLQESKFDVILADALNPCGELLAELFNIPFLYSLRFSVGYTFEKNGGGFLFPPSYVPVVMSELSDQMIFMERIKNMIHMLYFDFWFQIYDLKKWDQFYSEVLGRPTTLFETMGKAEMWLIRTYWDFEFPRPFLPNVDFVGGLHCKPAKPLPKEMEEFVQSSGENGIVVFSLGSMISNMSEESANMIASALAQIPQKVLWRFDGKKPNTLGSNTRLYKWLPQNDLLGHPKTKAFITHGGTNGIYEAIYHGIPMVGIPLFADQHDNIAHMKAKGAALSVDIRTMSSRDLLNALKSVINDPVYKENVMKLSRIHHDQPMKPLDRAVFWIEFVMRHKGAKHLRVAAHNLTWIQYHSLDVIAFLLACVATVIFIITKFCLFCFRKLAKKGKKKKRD
The description is as above. Format: biochemical. The following applies: pH 7.4, probe 4-methylumbelliferone (4-MU), 250 μM, 100 μM compound, 4-MU probe substrate, negative = activation. The procedure:
as §1, §2, §3

Molecules are shown by their SMILES.

`O=c1c2cc(O)c(O)cc2oc2cc(O)c([C@@H]3O[C@H](CO)[C@@H](O)[C@H](O)[C@H]3O)c(O)c12` [MGF, 1,3,6,7-tetrahydroxyxanthone-C-2-β-D-glucoside]: the inhibition at 120 min, 100 µM at UGT1A1 was found to be 14.5%; on UGT2B15 it was 8.9%.
With `O=c1c2cc(O)c(O)cc2oc2cc(O)cc(O)c12` [NTR, 1,3,6,7-tetrahydroxyxanthone], the inhibition at 120 min, 100 µM on UGT1A1 came out at 50.8%; at UGT2B15, 46.3%.
